In patent US10093973B2, “Polymerase compositions and methods” (LIFE TECHNOLOGIES CORPORATION, priority 2009, dated 2018):
Substitutions are numbered along the chain they refer to.

Tests used:
Assay type in all cases: biochemical
primer-template duplex = assay: Fractional extension activity assay; details: versus reference RB69 (SEQ ID NO: 15) and His-tagged Phi-29 (SEQ ID NO: 20); 330 nM enzyme, 1 μM dNTP, room temperature, 10 seconds
Experimental: The fractional extension activity of an exemplary modified polymerase having the amino acid of SEQ ID NO: 8 (referred to as “B104(exo-)” in FIG. 3) was measured and compared to the fractional extension activities of two different exemplary reference polymerases, including an RB69 reference polymerase comprising the amino acid sequence SEQ ID NO: 15 and a His-tagged Phi-29 reference polymerase comprising the amino acid sequence of SEQ ID NO: 20 (referred to herein as “HP1 polymerase”). All polymerases were prepared according to the method of Example 1. Both modified and reference polymerases were evaluated and compared in an assay to measure the fractional extension activity of each polymerase, i.e., the fraction of nucleic acid templates that are extended by at least one nucleotide in a polymerase reaction. In this assay, the fractional extension activity of a polymerase is defined as the fraction (measured as a percentage fraction) of nucleic acid templates that are extended by at least one nucleotide by the test or reference polymerase under the following reaction conditions: 50 mM Tris, pH 7.0, 50 mM NaCl, 1 mM MnCl2, 1 μM dNTP, 330 nM enzyme, 100 nM primer-template duplex and 0.5% BSA, wherein the extension is performed at room temperature for 10 seconds.
The primer-template duplex was formed by annealing the following polynucleotides: […]

[1] = tested on: ωdN4P and non-extendible AF546 primer:template duplex; assay: Stopped-flow t−1 measurement of Example 7; details: modified versus reference polymerase, ωdN4P 14 μM
Experimental: In this example, the t−1 values of an exemplary modified polymerase comprising the amino acid of SEQ ID NO: 8 and an exemplary reference polymerase comprising the amino acid sequence of SEQ ID NO: 20 were measured and compared. These kinetic parameters were evaluated using an assay system wherein mixtures comprising a test polymerase and a primer:template duplex were mixed in a stopped-flow assay with nucleotides. To measure t−1, the primer used to form the primer:template duplex was a non-extendible primer including a dideoxynucleotide at its 3′ end, and the template was a synthetic DNA template comprising a donor Alexa Fluor 546 moiety at its 5′ end. […] The ternary complex was mixed with unlabeled nucleotides in a stopped-flow experiment, and the resulting fluorescence was monitored as described below. […]
Preincubated mixtures comprising 200 nM of a primer:templex duplex, 660 nM of test polymerase, and 14 μM of ωdN4P were prepared and then mixed with a solution comprising the unlabeled cognate nucleotide (50 μM) in a stopped-flow apparatus. The fluorescence at both 546 nm and 647 nm was monitored following mixing. The averaged stopped-flow fluorescence traces were fitted with a single exponential function having the form of Equation (1) to extrapolate the t−1 value of the test polymerase.

[2] = tested on: AF647-C6-dG6P in [enzyme.DNA.nucleotide] ternary complex with dideoxy-primer/template duplex; assay: Stopped-flow measurement of t−1 (nucleotide dissociation from ternary complex); set-up: unit not given here; details: t−1 = 1/k−1; ternary complex with 7 μM AF647-C6-dG6P chased with 50 μM non-labeled nucleotide, 2 mM MnCl2
Experimental: Stopped-Flow Measurements of t−1
The stopped-flow techniques for measuring t−1 ([…]) followed the techniques described by M. Bakhtina (2009 Biochemistry 48:3197-3208).
The rate of the nucleotide dissociation ([…]) from the ternary complex of [enzyme.DNA.nucleotide] was measured in an Applied Photophysics SX20 stopped-flow spectrometer by monitoring changes […] a duplex Alexa fluor 546 dye-labeled-DNA template following the mixing of the [enzyme.DNA.labeled nucleotide] ternary complex with 50 μM cognate non-labeled deoxynucleoside triphosphate in a buffer containing 50 mM Tris-HCl (pH 7.5), 50 mM NaCl, 4 mM DTT, 0.2% BSA, and 2 mM MnCl2.
The ternary complexes were prepared using: 330 nM polymerase, 100 nM template/primer duplex, and 7 μM terminal phosphate-labeled nucleotides (AF647-C6-dG6P).
The averaged stopped-flow fluorescence traces (>1.5 msec) were fitted with a single exponential equation (2) to extrapolate the rate of the nucleotide dissociation (k−1) from the [enzyme.DNA.nucleotide] ternary complex. Fluorescence=A1*e^−k−1*t+C (equation 2) where A1 represents the corresponding fluorescence amplitude, C is an offset constant, and k−1 and the observed rate constants for the fluorescence transition.

Substance: mB103 (SEQ ID: 8): B103 polymerase triple mutant with D166A, F383L and D384N
- fractional extension activity (primer-template duplex): higher
- estimated t−1 values [1]: comparable
- t−1 [2]: 16
